One may read the IC50 as the concentration that gives 50% inhibition.

Experiment [1] concerns the target Recombinant ROCK2 (amino acids 1-552) (Homo sapiens (Human), UniProt O75116). Briefly: Z′-Lyte kinase assay, ROCK2. The class given is biochemical. To be noted: for inhibition at 1 µM: 1 μM compound, read-out: ROCK2 % inh. @ [conc]. In outline: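 IC50s derive from nonlinear curve fits over a 9-point, 2-fold dilution series, with single-point inhibition at 1 μM expressed relative to DMSO. Activity of truncated human ROCK1 (residues 1-535) and ROCK2 (residues 1-552) measured with the Z′-Lyte kinase format.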

The subject of experiment [2] is ppMlc (T18/S19) levels in A7R5 cells. Briefly: A7R5 in-cell ELISA (pMLC). The class given is cell-based, Rat. As to conditions: for inhibition at 10 µM / IC50 / inhibition at 1 µM: Rattus norvegicus; for inhibition at 10 µM / pMLC % inh A7R5 @ [conc]: 10 μM compound; for inhibition at 10 µM / inhibition at 1 µM: read-out: pMLC % inh A7R5 @ [conc]; for inhibition at 1 µM: 1 μM compound. In outline: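 Cellular IC50 came from a nonlinear regression fit of ppMlc (T18/S19) signal, read by colorimetric in-cell ELISA on fixed cells. Rat A7R5 aortic smooth muscle cells had been exposed for 90 min to compounds in 9-point 2-fold serial dilution, 24 h after seeding.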

Setting [3] is: A7R5, A7R5 cells, ppMlc (T18/S19).
Setting [4] is: 9 points 2-fold serial dilution.

Values joined by “and” are separate entries in the source; they are usually repeats but may differ in a detail not shown here. Equal entries are not always repeated. Where two headings read alike, the source gives them in different places.

Chain of Recombinant ROCK2 (amino acids 1-552) (O75116 1-552): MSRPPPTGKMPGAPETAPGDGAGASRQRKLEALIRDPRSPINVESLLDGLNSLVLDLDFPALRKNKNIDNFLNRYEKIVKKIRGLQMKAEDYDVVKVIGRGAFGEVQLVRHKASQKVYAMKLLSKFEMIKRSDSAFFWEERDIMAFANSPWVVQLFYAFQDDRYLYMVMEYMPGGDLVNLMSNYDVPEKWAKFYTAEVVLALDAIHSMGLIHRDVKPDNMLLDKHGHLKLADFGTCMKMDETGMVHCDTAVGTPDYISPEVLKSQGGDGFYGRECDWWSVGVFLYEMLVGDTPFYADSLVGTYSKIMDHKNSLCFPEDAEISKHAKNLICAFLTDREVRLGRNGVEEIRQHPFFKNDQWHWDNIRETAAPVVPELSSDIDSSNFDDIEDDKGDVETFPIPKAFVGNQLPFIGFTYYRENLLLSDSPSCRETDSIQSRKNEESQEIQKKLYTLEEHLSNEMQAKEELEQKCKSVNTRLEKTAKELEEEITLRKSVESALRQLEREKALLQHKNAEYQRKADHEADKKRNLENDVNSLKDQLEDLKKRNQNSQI

On to `CCC1CN(c2ncc(Cl)c(Nc3ccc4[nH]ncc4c3)n2)CCN1` (centres unmarked) [Example 190, N-(5-chloro-2-(3-ethylpiperazin-1-yl)pyrimidin-4-yl)-1H-indazol-5-amine], for which, in experiment [1], the inhibition at 1 µM turned out to be 41%. The inhibition at 10 µM in experiment [2] (A7R5, A7R5 cells) stood at 45.9%.

For `CC1CCN(c2ncc(Cl)c(Nc3ccc4[nH]ncc4c3)n2)CCN1` (centres unmarked) [Example 191, N-(5-chloro-2-(5-methyl-1,4-diazepan-1-yl)pyrimidin-4-yl)-1H-indazol-5-amine], the inhibition at 1 µM in experiment [1] was 67%. In addition, the inhibition at 10 µM in experiment [2] (A7R5, A7R5 cells) was 50.6%. Moreover, the IC50 in experiment [2] (setting [3]) turned out to be 1850 nM.

With `CC1CNCCN(c2ncc(Cl)c(Nc3ccc4[nH]ncc4c3)n2)C1` (centres unmarked) [Example 193, N-(5-chloro-2-(6-methyl-1,4-diazepan-1-yl)pyrimidin-4-yl)-1H-indazol-5-amine], the inhibition at 1 µM was determined as 84.4% in experiment [1] and 32.5% in experiment [2] (A7R5, A7R5 cells). For the same molecule, the IC50 was 282 nM in experiment [1] (setting [4]) and 788 nM in experiment [2] (setting [3]).

As for `Clc1cnc(N2CC3CCC(C2)N3)nc1Nc1ccc2[nH]ncc2c1` [Example 195, N-(2-(3,8-diazabicyclo[3.2.1]octan-3-yl)-5-chloropyrimidin-4-yl)-1H-indazol-5-amine], the inhibition at 1 µM in experiment [1] was 66%; in experiment [2] (A7R5, A7R5 cells), -3.1%. Further, the IC50 in experiment [1] (setting [4]) was 405 nM.

`Cc1nc(N2CCNCC2)nc(Nc2ccc3[nH]ncc3c2)c1C` [Example 197, N-(5,6-dimethyl-2-(piperazin-1-yl)pyrimidin-4-yl)-1H-indazol-5-amine]: the values for the IC50 in experiment [1] (setting [4]) and in experiment [2] (setting [3]) were 437 nM and 581 nM, respectively. Also, the inhibition at 10 µM in experiment [2] (A7R5, A7R5 cells) is 53.8%.

For the molecule `c1cc(Nc2ccc3[nH]ncc3c2)nc(N2CC3CC(C2)N3)n1` [Example 199, N-(2-(3,6-diazabicyclo[3.1.1]heptan-3-yl)pyrimidin-4-yl)-1H-indazol-5-amine], the results for the IC50 in experiment [1] (setting [4]) and in experiment [2] (setting [3]) were 151 nM and 525 nM, respectively. Besides, the inhibition at 10 µM in experiment [2] (A7R5, A7R5 cells) turned out to be 49.6%.

`Cc1cc(Nc2ccc3[nH]ncc3c2)nc(N2CCNC3(CC3)C2)n1` [Example 212, N-(6-methyl-2-(4,7-diazaspiro[2.5]octan-7-yl)pyrimidin-4-yl)-1H-indazol-5-amine]: the inhibition at 1 µM stood at 91.9% in experiment [1] and 16.1% in experiment [2] (A7R5, A7R5 cells).

Turning to `c1cc(Nc2ccc3[nH]ncc3c2)nc(N2CC3CCC(C2)N3)n1` [Example 229, N-(2-(3,8-diazabicyclo[3.2.1]octan-3-yl)pyrimidin-4-yl)-1H-indazol-5-amine], in experiment [1] (setting [4]), the IC50 is 77 nM. The inhibition at 10 µM in experiment [2] (A7R5, A7R5 cells) was 81%.

In the case of `c1ccc(CNC2CCCN(c3nccc(Nc4ccc5[nH]ncc5c4)n3)C2)cc1` (centres unmarked) [Example 234, N-(2-(3-(benzylamino)piperidin-1-yl)pyrimidin-4-yl)-1H-indazol-5-amine], the IC50 in experiment [1] came out at 1800 nM. Also, the inhibition at 10 µM in experiment [2] (A7R5, A7R5 cells) amounted to 55.6%.

With `CCC1CNCCN1c1nccc(Nc2ccc3[nH]ncc3c2)n1` (centres unmarked) [Example 235, N-(2-(2-ethylpiperazin-1-yl)pyrimidin-4-yl)-1H-indazol-5-amine], the inhibition at 1 µM in experiment [1] was 94.4%. The IC50 in experiment [1] (setting [4]) is 54 nM; in experiment [2] (setting [3]) it was 510 nM.

Regarding `CC1CCNCCN1c1nccc(Nc2ccc3[nH]ncc3c2)n1` (centres unmarked) [Example 240, N-(2-(7-methyl-1,4-diazepan-1-yl)pyrimidin-4-yl)-1H-indazol-5-amine], the inhibition at 1 µM in experiment [1] amounted to 84.5%. Further, the inhibition at 10 µM in experiment [2] (A7R5, A7R5 cells) came out at 78.1%. The IC50 in experiment [2] (setting [3]) was 1110 nM.

In the case of `CCC1CNCCCN1c1nccc(Nc2ccc3[nH]ncc3c2)n1` (centres unmarked) [Example 241, N-(2-(2-ethyl-1,4-diazepan-1-yl)pyrimidin-4-yl)-1H-indazol-5-amine], in experiment [1], the inhibition at 1 µM is 85.2%. Besides, in experiment [2] (A7R5, A7R5 cells), the inhibition at 10 µM was 81%. The IC50 in experiment [2] (setting [3]) worked out at 954 nM.

Turning to `COc1cccc(CN(C)C2CCCN(c3nccc(Nc4ccc5[nH]ncc5c4)n3)C2)c1` (centres unmarked) [Example 242, N-(2-(3-((3-methoxybenzyl)(methyl)amino)piperidin-1-yl)pyrimidin-4-yl)-1H-indazol-5-amine], the IC50 in experiment [1] was 747 nM. For the same molecule, the inhibition at 10 µM in experiment [2] (A7R5, A7R5 cells) amounted to 41.2%.

As for `COc1ccccc1NC1CCCN(c2nccc(Nc3ccc4[nH]ncc4c3)n2)C1` (centres unmarked) [Example 244, N-(2-(3-((2-methoxyphenyl)amino)piperidin-1-yl)pyrimidin-4-yl)-1H-indazol-5-amine], in experiment [1], the IC50 was greater than 10000 nM. The inhibition at 10 µM in experiment [2] (A7R5, A7R5 cells) was determined as 0.8%.

For the molecule `COc1ccc(N[C@@H]2CCN(c3nccc(Nc4ccc5[nH]ncc5c4)n3)C2)cc1` [Example 246, (R)—N-(2-(3-((4-methoxyphenyl)amino)pyrrolidin-1-yl)pyrimidin-4-yl)-1H-indazol-5-amine], the “ROCK2 % inh. @ [conc]” value in experiment [1] (concentration not given) turned out to be 0%. The inhibition at 10 µM in experiment [2] (A7R5, A7R5 cells) came to 1.8%.

Regarding `N[C@H]1CCN(c2nccc(Nc3ccc(-c4cn[nH]c4)cc3)n2)C1` [Example 254, (S)—N-(4-(1H-pyrazol-4-yl)phenyl)-2-(3-aminopyrrolidin-1-yl)pyrimidin-4-amine], in experiment [1], the IC50 is 1230 nM. Besides, in experiment [2] (A7R5, A7R5 cells), the inhibition at 10 µM was found to be 16.2%.

On to `OC1CC2CCC(C1)N2c1nccc(Nc2ccc(-c3cn[nH]c3)cc2)n1` (centres unmarked) [Example 259, 8-(4-((4-(1H-pyrazol-4-yl)phenyl)amino)pyrimidin-2-yl)-8-azabicyclo[3.2.1]octan-3-ol], for which the IC50 in experiment [1] was greater than 10000 nM. In addition, in experiment [2] (A7R5 cells), the inhibition at 10 µM is 6.48%.

Turning to `Cc1cnc(N2CCCNCC2)nc1Nc1ccc(-c2cn[nH]c2)cc1` [Example 261, N-(4-(1H-pyrazol-4-yl)phenyl)-2-(1,4-diazepan-1-yl)-5-methylpyrimidin-4-amine], the inhibition at 1 µM in experiment [1] was determined as 74%. The inhibition at 10 µM in experiment [2] (A7R5, A7R5 cells) amounted to 86%. For the same molecule, in experiment [2] (setting [3]), the IC50 was 1880 nM.

Regarding `c1cc(-c2cn[nH]c2)ccc1Nc1nc(N2CCCNCC2)nc2c1CSC2` [Example 263, N-(4-(1H-pyrazol-4-yl)phenyl)-2-(1,4-diazepan-1-yl)-5,7-dihydrothieno[3,4-d]pyrimidin-4-amine], the inhibition at 1 µM in experiment [1] was determined as 101%. The inhibition at 10 µM in experiment [2] (A7R5, A7R5 cells) was 82%. In experiment [2] (setting [3]), the IC50 is 1390 nM.

In the case of `c1cc2nc(N3CCCNCC3)nc(Nc3ccc(-c4cn[nH]c4)cc3)c2s1` [Example 264, N-(4-(1H-pyrazol-4-yl)phenyl)-2-(1,4-diazepan-1-yl)thieno[3,2-d]pyrimidin-4-amine], in experiment [1], the inhibition at 1 µM amounted to 92.8%. For the same molecule, the IC50 in experiment [1] (setting [4]) came to 30 nM; in experiment [2] (setting [3]), 514 nM. In addition, the inhibition at 10 µM in experiment [2] (A7R5, A7R5 cells) is 60.2%.

As to `Cc1cc(Nc2ccc(-c3cn[nH]c3)cc2)nc(N2CCCNCC2)n1` [Example 265, N-(4-(1H-pyrazol-4-yl)phenyl)-2-(1,4-diazepan-1-yl)-6-methylpyrimidin-4-amine], the inhibition at 1 µM in experiment [1] amounted to 71.2%. The inhibition at 10 µM in experiment [2] (A7R5, A7R5 cells) amounted to 80%. The IC50 in experiment [2] (setting [3]) was determined as 1370 nM.

Turning to `COc1cnc(N2CCCNCC2)nc1Nc1ccc(-c2cn[nH]c2)cc1` [Example 267, N-(4-(1H-pyrazol-4-yl)phenyl)-2-(1,4-diazepan-1-yl)-5-methoxypyrimidin-4-amine], the inhibition at 1 µM in experiment [1] turned out to be 52.3%. Moreover, the inhibition at 10 µM in experiment [2] (A7R5, A7R5 cells) was found to be 70%.

As for `COc1cccc(C2CCN(c3nccc(Nc4ccc(-c5cn[nH]c5)cc4)n3)C2)c1` (centres unmarked) [Example 269, N-(4-(1H-pyrazol-4-yl)phenyl)-2-(3-(3-methoxyphenyl)pyrrolidin-1-yl)pyrimidin-4-amine], the IC50 in experiment [1] was determined as 1650 nM. Further, in experiment [2] (A7R5 cells), the “pMLC % inh A7R5 @ [conc]” value was −5.7% and −7.2%.

As for `c1ccc(C2CCN(c3nccc(Nc4ccc(-c5cn[nH]c5)cc4)n3)C2)cc1` (centres unmarked) [Example 270, N-(4-(1H-pyrazol-4-yl)phenyl)-2-(3-phenylpyrrolidin-1-yl)pyrimidin-4-amine], in experiment [1], the IC50 worked out at 1430 nM. Further, the “pMLC % inh A7R5 @ [conc]” value in experiment [2] (A7R5 cells) was −6.9% and −8.9%.

As to `Clc1cnc(N2CC3CC(C2)N3)nc1Nc1ccc2[nH]ncc2c1` [Example 280, N-(2-(3,6-diazabicyclo[3.1.1]heptan-3-yl)-5-chloropyrimidin-4-yl)-1H-indazol-5-amine], the IC50 in experiment [1] was determined as 263 nM. Besides, the inhibition at 1 µM in experiment [2] (A7R5, A7R5 cells) is 26.6%.

As to `CN1CCc2nc(N3C4CCC3CNC4)nc(Nc3ccc(-c4cn[nH]c4)cc3)c2C1` [Example 303, N-(4-(1H-pyrazol-4-yl)phenyl)-2-(3,8-diazabicyclo[3.2.1]octan-8-yl)-6-methyl-5,6,7,8-tetrahydropyrido[4,3-d]pyrimidin-4-amine], the IC50 in experiment [1] is 257 nM; in experiment [2] (A7R5, A7R5 cells) it was greater than 10000 nM.

Turning to `c1cc(-c2ccc(Nc3nc(N4C5CCC4CNC5)nc4c3CNC4)cc2)ccn1` [Example 306, 2-(3,8-diazabicyclo[3.2.1]octan-8-yl)-N-(4-(pyridin-4-yl)phenyl)-6,7-dihydro-5H-pyrrolo[3,4-d]pyrimidin-4-amine], the IC50 was greater than 1000 nM in experiment [1] and greater than 10000 nM in experiment [2] (A7R5, A7R5 cells).

As for `c1cc(Nc2ccnc(N3CCNCC3)n2)cc(-c2cn[nH]c2)c1` [Example 347, N-(3-(1H-pyrazol-4-yl)phenyl)-2-(piperazin-1-yl)pyrimidin-4-amine], in experiment [1], the IC50 was greater than 10000 nM. Also, in experiment [2] (A7R5, A7R5 cells), the inhibition at 10 µM was determined as 17%.

For the molecule `Nc1ccc(-c2ccc(Nc3ccnc(N4CCNCC4)n3)cc2)cn1` [Example 350, N-(4-(6-aminopyridin-3-yl)phenyl)-2-(piperazin-1-yl)pyrimidin-4-amine], the IC50 in experiment [1] was found to be 3700 nM. In experiment [2] (A7R5, A7R5 cells), the inhibition at 10 µM turned out to be 14.8%.

For `c1cc(Nc2ccc(-c3cnc[nH]3)cc2)nc(N2CCNCC2)n1` [Example 351, N-(4-(1H-imidazol-5-yl)phenyl)-2-(piperazin-1-yl)pyrimidin-4-amine], the IC50 in experiment [1] is greater than 10000 nM. In experiment [2] (A7R5, A7R5 cells), the inhibition at 10 µM came out at 7.8%.

These data come from patent US11613531B2, “Inhibitors of RHO associated coiled-coil containing protein kinase” (Kadmon Corporation, LLC, priority 2017, dated 2023).
